Results: PubChem BioAssay AID330 (DTP/NCI, 2004)
Several values for one entry are separate records, joined by “and”; a condition that tells them apart may be missing. Identical values can stand only once. Inconclusive results and toxic doses are left out. Rule for the calls: active = survival T/C of 150% or more; inactive = T/C below 125% in these data.

Tested on: P388 leukemia ip, CD2F1 mice, survival T/C
Assay: NCI In Vivo Anticancer Drug Screen. Data for tumor model P388 Leukemia (intraperitoneal) in CD2F1 (CDF1) mice
Conditions: endpoint: median survival time, higher = longer survival
Outline: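 Mice carrying the transplanted tumor received test compound or vehicle. Survival was recorded in each group, and the value is the treated-group measurement divided by that of the vehicle-treated control group.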

[1] = dose: 60.0 mg/kg/injection, schedule: Q01DX005 (ip), vehicle: Klucel (hydroxypropylcellulose) (HPC)
[2] = dose: 120.0 mg/kg/injection, schedule: Q01DX005 (ip), vehicle: Klucel (hydroxypropylcellulose) (HPC)
[3] = dose: 240.0 mg/kg/injection, schedule: Q01DX005 (ip), vehicle: Klucel (hydroxypropylcellulose) (HPC)

Measured: T/C

CCOC(=O)CN1CCC2CC1c1c([nH]c3ccccc13)C2c1cc2c(cc1OC)N(C)C1C(O)(C(=O)OC)C(OC(C)=O)C3(CC)C=CCN4CCC21C43 (configuration not stated)
inactive: dose: 0.03 mg/kg/injection, schedule: Q04DX003 (ip), vehicle: saline with Tween-80 94 % of control | dose: 0.06 mg/kg/injection, schedule: Q01DX009 (ip), vehicle: Klucel (hydroxypropylcellulose) (HPC) 94 % of control | dose: 0.06 mg/kg/injection, schedule: Q04DX003 (ip), vehicle: saline with Tween-80 92 % of control | dose: 0.13 mg/kg/injection, schedule: Q01DX009 (ip), vehicle: Klucel (hydroxypropylcellulose) (HPC) 93 % of control | dose: 0.13 mg/kg/injection, schedule: Q04DX003 (ip), vehicle: saline with Tween-80 95 % of control | dose: 0.25 mg/kg/injection, schedule: Q04DX003 (ip), vehicle: saline with Tween-80 98 % of control | dose: 0.5 mg/kg/injection, schedule: Q04DX003 (ip), vehicle: saline with Tween-80 112 % of control | dose: 1.0 mg/kg/injection, schedule: Q01DX009 (ip), vehicle: Klucel (hydroxypropylcellulose) (HPC) 90 % of control | dose: 13.0 micrograms/kg/injection, schedule: Q01DX009 (ip), vehicle: Klucel (hydroxypropylcellulose) (HPC) 98 % of control | dose: 25.0 micrograms/kg/injection, schedule: Q01DX009 (ip), vehicle: Klucel (hydroxypropylcellulose) (HPC) 103 % of control | dose: 50.0 micrograms/kg/injection, schedule: Q01DX009 (ip), vehicle: Klucel (hydroxypropylcellulose) (HPC) 94 % of control | dose: 100.0 micrograms/kg/injection, schedule: Q01DX009 (ip), vehicle: Klucel (hydroxypropylcellulose) (HPC) 100 % of control | dose: 200.0 micrograms/kg/injection, schedule: Q01DX009 (ip), vehicle: Klucel (hydroxypropylcellulose) (HPC) 103 % of control

CC(=O)SSC12CC3CC(CC(C3)C1)C2
inactive: dose: 30.0 mg/kg/injection, schedule: Q01DX005 (ip), vehicle: saline with Tween-80 100 % of control | dose: 60.0 mg/kg/injection, schedule: Q01DX005 (ip), vehicle: saline with Tween-80 100 % of control and 101 % of control | dose: 120.0 mg/kg/injection, schedule: Q01DX005 (ip), vehicle: saline with Tween-80 100 % of control and 104 % of control

COc1ccccc1-n1cccc(C#N)c1=S
inactive: [1] 98 % of control | [2] 91 % of control | [3] 89 % of control

O=c1oc(NC2CCCCC2)nc2ccccc12
inactive: [1] 93 % of control | [2] 92 % of control | [3] 92 % of control

COC1NC(=O)N(C(C)C)C1(C)C (configuration not stated)
inactive: dose: 12.5 mg/kg/injection, schedule: Q01DX009 (ip), vehicle: saline 101 % of control | dose: 25.0 mg/kg/injection, schedule: Q01DX009 (ip), vehicle: saline 101 % of control | dose: 50.0 mg/kg/injection, schedule: Q01DX009 (ip), vehicle: saline 100 % of control and 97 % of control | dose: 200.0 mg/kg/injection, schedule: Q01DX009 (ip), vehicle: saline 107 % of control

OC(CCl)CN1CC[N+]2(CC1)CC[N+]1(CCN(CC(O)CCl)CC1)CC2 (configuration not stated)
inactive: dose: 25.0 mg/kg/injection, schedule: Q01DX005 (ip), vehicle: water 100 % of control | dose: 25.0 mg/kg/injection, schedule: Q01DX005 (iv), vehicle: water 103 % of control | dose: 25.0 mg/kg/injection, schedule: Q01DX009 (sc), vehicle: water 97 % of control | dose: 25.0 mg/kg/injection, schedule: Q03HX008 (ip), vehicle: water 106 % of control | dose: 25.0 mg/kg/injection, schedule: Q03HX016 (ip), vehicle: water 100 % of control | dose: 25.0 mg/kg/injection, schedule: Q03HX024 (ip), vehicle: water 113 % of control | dose: 50.0 mg/kg/injection, schedule: Q01DX005 (ip), vehicle: water 101 % of control and 92 % of control | dose: 50.0 mg/kg/injection, schedule: Q01DX005 (iv), vehicle: water 102 % of control and 105 % of control | dose: 50.0 mg/kg/injection, schedule: Q01DX009 (ip), vehicle: water 98 % of control | dose: 50.0 mg/kg/injection, schedule: Q01DX009 (sc), vehicle: water 104 % of control | dose: 50.0 mg/kg/injection, schedule: Q03HX008 (ip), vehicle: water 103 % of control | dose: 50.0 mg/kg/injection, schedule: Q03HX016 (ip), vehicle: water 118 % of control | dose: 50.0 mg/kg/injection, schedule: Q03HX024 (ip), vehicle: water 121 % of control | dose: 100.0 mg/kg/injection, schedule: Q01DX005 (ip), vehicle: water 109 % of control and 98 % of control | dose: 100.0 mg/kg/injection, schedule: Q01DX005 (iv), vehicle: water 100 % of control and 101 % of control | dose: 100.0 mg/kg/injection, schedule: Q01DX009 (ip), vehicle: water 103 % of control | dose: 100.0 mg/kg/injection, schedule: Q01DX009 (oral), vehicle: water 99 % of control | dose: 100.0 mg/kg/injection, schedule: Q01DX009 (sc), vehicle: water 106 % of control | dose: 100.0 mg/kg/injection, schedule: Q03HX008 (ip), vehicle: water 114 % of control | dose: 100.0 mg/kg/injection, schedule: Q03HX024 (ip), vehicle: water 123 % of control | dose: 100.0 mg/kg/injection, schedule: Q04DX003 (ip), vehicle: water 92 % of control | dose: 200.0 mg/kg/injection, schedule: Q01DX001 (ip), vehicle: water 95 % of control | dose: 200.0 mg/kg/injection, schedule: Q01DX005 (ip), vehicle: water 102 % of control and 115 % of control | dose: 200.0 mg/kg/injection, schedule: Q01DX005 (iv), vehicle: water 109 % of control | dose: 200.0 mg/kg/injection, schedule: Q01DX009 (ip), vehicle: water 117 % of control | dose: 200.0 mg/kg/injection, schedule: Q01DX009 (oral), vehicle: water 101 % of control | dose: 200.0 mg/kg/injection, schedule: Q01DX009 (sc), vehicle: water 114 % of control | dose: 200.0 mg/kg/injection, schedule: Q04DX003 (ip), vehicle: water 99 % of control | dose: 200.0 mg/kg/injection, schedule: Q08DX002 (ip), vehicle: water 95 % of control | dose: 400.0 mg/kg/injection, schedule: Q01DX001 (ip), vehicle: water 96 % of control | dose: 400.0 mg/kg/injection, schedule: Q01DX005 (iv), vehicle: water 109 % of control | dose: 400.0 mg/kg/injection, schedule: Q01DX009 (ip), vehicle: water 111 % of control | dose: 400.0 mg/kg/injection, schedule: Q01DX009 (oral), vehicle: water 101 % of control | dose: 400.0 mg/kg/injection, schedule: Q01DX009 (sc), vehicle: water 107 % of control | dose: 400.0 mg/kg/injection, schedule: Q04DX003 (ip), vehicle: water 106 % of control | dose: 400.0 mg/kg/injection, schedule: Q08DX002 (ip), vehicle: water 104 % of control | dose: 800.0 mg/kg/injection, schedule: Q01DX001 (ip), vehicle: water 100 % of control | dose: 800.0 mg/kg/injection, schedule: Q01DX009 (oral), vehicle: water 92 % of control | dose: 800.0 mg/kg/injection, schedule: Q01DX009 (sc), vehicle: water 92 % of control | dose: 800.0 mg/kg/injection, schedule: Q04DX003 (ip), vehicle: water 118 % of control | dose: 800.0 mg/kg/injection, schedule: Q08DX002 (ip), vehicle: water 113 % of control | dose: 1600.0 mg/kg/injection, schedule: Q01DX001 (ip), vehicle: water 119 % of control | dose: 1600.0 mg/kg/injection, schedule: Q08DX002 (ip), vehicle: water 120 % of control

OC(C(=S)N1CCCC1)(c1ccccc1)c1ccccc1
inactive: dose: 50.0 mg/kg/injection, schedule: Q01DX009 (ip), vehicle: Klucel (hydroxypropylcellulose) (HPC) 103 % of control | dose: 100.0 mg/kg/injection, schedule: Q01DX009 (ip), vehicle: Klucel (hydroxypropylcellulose) (HPC) 103 % of control | dose: 200.0 mg/kg/injection, schedule: Q01DX009 (ip), vehicle: Klucel (hydroxypropylcellulose) (HPC) 100 % of control
